According to patent US6043261A, “Pyrrolodino imidines useful as nitric oxide synthase inhibitors” (G. D. Searle & Co., priority 1998, dated 2000):
Counter-ions that a name gives are not always drawn. Like-named read-outs stand apart in the source and are kept apart here.

Tests used:
[1] = target: T1, human inducible NOS (hiNOS) (Homo sapiens, UniProt P35228); test: Citrulline Assay for Nitric Oxide Synthase, hiNOS; type: biochemical; conditions: recombinant human inducible NOS, 37° C., 15 minutes
T1 construct: made in house; host or cells: insect cells, baculovirus vector
Procedure: (§1) Citrulline Assay for Nitric Oxide Synthase
(§2) Nitric oxide synthase activity was measured by monitoring the conversion of L-[2,3-3H]-arginine to L-[2,3-3H]-citrulline (1,2). The cDNA for human inducible NOS (hiNOS) was isolated from a lcDNA library made from RNA extracted from a colon sample from a patient with ulcerative colitis; human endothelial constitutive NOS (hecNOS) was isolated from a lcDNA library made from RNA extracted from human umbilical vein endothelial cells (HUVEC); and human neuronal constitutive NOS (hncNOS) was isolated from a lcDNA library made from RNA extracted from human cerebellum from a cadaver. The recombinant enzymes were expressed in insect cells using a baculovirus vector. Enzyme activity was isolated from cell extracts and partially purified by DEAE-Sepharose chromatography (2). […] For constitutive NOS, calmodulin was included at a final concentration of 40-100 nM. Following incubation at 37° C. for 15 minutes, the reaction was terminated by addition of 300 μL cold buffer containing 10 mM EGTA, 100 mM HEPES (pH5.5) and 1.0 mM L-citrulline. The [3H]-citrulline was separated by chromatography on Dowex 50W X-8 cation exchange resin and radioactivity quantified with a liquid scintillation counter.

[2] = target: T2, human endothelial constitutive NOS (hecNOS) (Homo sapiens, UniProt P29474); test: Citrulline Assay for Nitric Oxide Synthase, hecNOS; type: biochemical; conditions: recombinant human endothelial constitutive NOS, 37° C., 15 minutes, calmodulin 40-100 nM
T2 construct: made in house; host or cells: insect cells, baculovirus vector
Procedure: as §1, §2

[3] = target: T3, human neuronal constitutive NOS (hncNOS) (Homo sapiens, UniProt P29475); test: biochemical; conditions: recombinant human neuronal constitutive NOS, 37° C., 15 minutes, calmodulin 40-100 nM
T3 construct: made in house; host or cells: insect cells, baculovirus vector
Procedure: as §1, §2

RAW cell miNOS = target: T4, RAW cell miNOS (Mus musculus, UniProt P29477); test: Raw Cell Nitrite Assay; type: cell-based; conditions: RAW 264.7 cells, LPS-induced, L-arginine 30 μM, nitrite production 1 h at 37° C.
T4 construct: in the presence of LPS to induce NOS; endogenous in cells; host or cells: RAW 264.7 cells, LPS-induced
Procedure: RAW 264.7 cells are plated to confluency on a 96-well tissue culture plate grown overnight (17 h) in the presence of LPS to induce NOS. […] The media is removed from each well and the cells are washed twice with Krebs-Ringers-Hepes (25 mM, pH 7.4) with 2 mg/ml glucose. The cells are then placed on ice and incubated with 50 μL of buffer containing L-arginine (30 μM) ± inhibitors for 1 h. The assay is initiated by warming the plate to 37° C. in a water bath for 1 h. […] To terminate the cellular assay, the plate of cells is placed on ice and the nitrite-containing buffer removed and analyzed for nitrite using a previously published fluorescent determination for nitrite. All values are the average of triplicate wells and are compared to a background-subtracted induced set of cells (100% value).

Plasma Nitrites/Nitrates = test: In Vivo Assay: plasma nitrites/nitrates, Endotoxin in Rat Model; parameters: species or system Rats; conditions: 10 mg/kg p.o., 1 hour prior to LPS 10 mg/kg i.p., plasma nitrites 5 hours post-treatment
Procedure: In Vivo Assay Rats were treated with an intraperitoneal injection of 10 mg/kg of endotoxin (LPS) with or without oral administration of the nitric oxide synthase inhibitors administered 1 hour prior to LPS. Plasma nitrites were measured 5 hours post-treatment.

Work on `C[C@@H]1CC(=N)N[C@H]1Cc1ccccc1` (relative stereo) [Example 64, (±) (trans) 4-methyl-5-(phenylmethyl)pyrrolidin-2-imine, Monohydrochloride] yielded an IC50 [1] of 3 µM, an IC50 [2] of 458 µM and an IC50 ([3]; read-out: IC50 hncNOS) of 8.3 µM. For the same compound, the IC50 (RAW cell miNOS; read-out: IC50 RAW cell miNOS) was 5.4 µM and the “% Inhibition of Plasma Nitrites/Nitrates” value (Plasma Nitrites/Nitrates) was 35%.

In the case of `N=C1CCCCC(Cc2ccccc2)N1` (single isomer, unassigned; (+)) [Example 14, (+)-hexahydro-7-(phenylmethyl)-1H-azepin-2-imine, Monohydrochloride], the IC50 [1] is reported as 62 µM, the IC50 [2] is reported as 651 µM and the IC50 ([3]; read-out: IC50 hncNOS) is reported as 30 µM. For the same compound, the IC50 (RAW cell miNOS; read-out: IC50 RAW cell miNOS) was 170 µM.

For `N=C1CCCCC(Cc2ccccc2)N1` (single isomer, unassigned; (-)) [Example 16, (-)-hexahydro-7-(phenylmethyl)-1H-azepin-2-imine, Monohydrochloride], the IC50 [1] was 3.6 µM, the IC50 [2] was 599 µM and the IC50 ([3]; read-out: IC50 hncNOS) was 14 µM. The IC50 (RAW cell miNOS; read-out: IC50 RAW cell miNOS) was 1.8 µM.

`Cl.N=C1CCCCC(Cc2ccccc2)N1` (stereo not shown) [Example 5, Hexahydro-7-(phenylmethyl)-1H-azepin-2-imine, Monohydrochloride] showed an IC50 [1] of 6.2 µM, an IC50 [2] of 792 µM and an IC50 ([3]; read-out: IC50 hncNOS) of 15 µM. For the same compound, the IC50 (RAW cell miNOS; read-out: IC50 RAW cell miNOS) was 66 µM and the “% Inhibition of Plasma Nitrites/Nitrates” value (Plasma Nitrites/Nitrates) was 37%.

With `N=C1CCCCC(CC2CCCCC2)N1` (stereo not shown) [Example 9, 7-(cyclohexylmethyl)hexahydro-1H-azepin-2-imine, Monohydrochloride] the IC50 [1] was 9.7 µM, the IC50 [2] was 575 µM and the IC50 ([3]; read-out: IC50 hncNOS) was 74 µM. It also gave an IC50 (RAW cell miNOS; read-out: IC50 RAW cell miNOS) greater than 100 µM.

With `N=C1CCCCC(CC2CO2)N1` (stereo not shown) [Example 21, Hexahydro-7-[(oxiran-2-yl)methyl]-1H-azepin-2-imine, Monohydrochloride] the IC50 ([3]; read-out: IC50 hncNOS) was 8.4 µM and the IC50 (RAW cell miNOS; read-out: IC50 RAW cell miNOS) was 28 µM.

Compound `N=C1CCCCC(C/C=C/c2ccccc2)N1` (stereo not shown) [Example 34, Hexahydro-7-(3-phenyl-2-propenyl)-1H-azepin-2-imine, Monohydrochloride] has an IC50 [1] of 8.1 µM, an IC50 [2] of 183 µM and an IC50 ([3]; read-out: IC50 hncNOS) of 24 µM.

`N=C1CCCCC(CCCc2ccccc2)N1` (stereo not shown) [Example 37, Hexahydro-7-(3-phenylpropyl)-1H-azepin-2-imine, Monohydrochloride] gave an IC50 [1] of 19 µM, an IC50 [2] of 836 µM and an IC50 ([3]; read-out: IC50 hncNOS) of 118 µM. For the same compound, the IC50 (RAW cell miNOS; read-out: IC50 RAW cell miNOS) was 80 µM.

Compound `NC1=NC(Cc2ccccc2)CCC1` (stereo not shown) [Example 94, 6-(phenylmethyl)piperidin-2-imine, Monohydrochloride] has an IC50 ([3]; IC50 hncNOS) of 0.71 µM and an IC50 (RAW cell miNOS; IC50 RAW cell miNOS) of 7.9 µM.

In the case of `N=C1CCCC(CC2CCCCC2)N1` (stereo not shown) [Example 95, 6-(cyclohexylmethyl)piperidin-2-imine, Monohydrochloride], the IC50 [1] is reported as 5.9 µM, the IC50 [2] is reported as 375 µM and the IC50 ([3]; read-out: IC50 hncNOS) is reported as 28 µM.

Compound `N=C1CCCCC(CC2CC(c3ccccc3)=NO2)N1` (stereo not shown) [Example 191, 7-[(4,5-dihydro-3-phenylisoxazolyl-5-yl)methyl]hexahydro-1H-azepine-2-imine, Monotrifluoroacetic Acid Salt] has an IC50 (RAW cell miNOS; read-out: IC50 RAW cell miNOS) of 45 µM.
